According to patent publication US20020160981A1, “Compositions containing an association of aspirin and an anti-Xz oligosaccharide and use of an anti-Xa oligosaccharide optionally in combination with aspirin” (Sanofi-Synthelabo, priority 1997, published 2002):

Assays:
[1] = test system: factor Xa
[2] = activated clotting time (ACT) in PTCA patients; assay type: in vivo, human; conditions: after 12 mg PS i.v. and 500 mg i.v. aspirin
[3] = test system: Thrombin-antithrombin complexes; assay: thrombin-antithrombin complexes levels (TAT) in PTCA patients; assay type: in vivo, human; conditions: 2 hours after PS injection; fell from 21.9±18.7 before
[4] = test system: prothrombin fragment 1+2; assay: prothrombin fragment 1+2 levels in PTCA patients; assay type: in vivo, human; conditions: 2 hours after PS injection; fell from 2.08±1.04 before
[5] = test system: patients undergoing a transluminal angioplasty of the coronaries; assay: pilot clinical study in patients undergoing PTCA: thrombus formation at PTCA sites and TIMI flow in target vessel; assay type: in vivo, human; conditions: 71 patients
Procedure: A single dose of 12 mg of PS via the intravenous route and 500 mg of aspirin, via the intravenous route, was administered to the patients.
To assess the antithrombotic activity 71 patients with stable angina (26), recent unstable angina (11) or recent myocardial infarction (34) with type A or B coronary lesions underwent PTCA with a single 12 mg PS i.v. bolus injection and 500 mg i.v. aspirin. Angiography was repeated 24 h after PTCA. The endpoints were thrombus formation at PTCA sites and the thrombolysis in myocardial infarction (TIMI) flow in target vessel. Heparin was not allowed before, during and within 24 h after PTCA.

[6] = single 12 mg PS i.v. bolus and 500 mg i.v. aspirin, no heparin

SMILES: CO[C@H]1OC(COS(=O)(=O)O)[C@@H](O[C@@H]2OC(C(=O)O)[C@H](O[C@@H]3OC(COS(=O)(=O)O)[C@@H](O[C@@H]4OC(C(=O)O)[C@@H](O[C@H]5OC(COS(=O)(=O)O)[C@@H](O)C(O)C5NS(=O)(=O)O)C(O)C4O)C(OS(=O)(=O)O)C3NS(=O)(=O)O)C(O)C2OS(=O)(=O)O)C(O)C1NS(=O)(=O)O (stereo partly drawn) [PS, methyl O-(2-deoxy-2-sulphoamino-6-O-sulpho-α-D-gluco-pyranosyl)-(1→4)-O-(β-D-glucopyranosyluronic acid)-(1→4)-O-(2-deoxy-2-sulphoamino-3,6-di-O-sulpho-α-D-glucopyranosyl)-(1→4)-O-(2-O-sulpho-α-L-idopyranosyl-uronic acid)-(1→4)-2-deoxy-2-sulphoamino-6-O-sulpho-α-D-glucopyranoside]
- Anti-Xa activity, peak ([1]; 10 min. after 12 mg PS i.v. bolus (with 500 mg i.v. aspirin)): 1.20±0.29 U anti-Xa/ml
- Anti-Xa activity, maintained on average ([1]; 2 hours after PS administration, 12 mg i.v. (with 500 mg i.v. aspirin)): 0.87 ±0.14 U anti-Xa/ml
- activated clothing time ACT [2]: remained unchanged
- Thrombin-antithrombin complexes levels (TAT) [3]: 4.8 ± 3.8 µg/L
- prothrombin fragment 1+2 [4]: 1.54 ± 82 ng/mL
- major bleeding ([5]; 12 mg PS i.v. and 500 mg i.v. aspirin): No major bleeding occurred
- Acute thrombotic closure at dissected PTCA site [5, 6]: 1 patient
- distal embolization of a thrombus containing plaque [5, 6]: 1 patient
- TIMI 3 flow without thrombus at PTCA site ([5]; at 24 h after PTCA, 12 mg PS i.v. and 500 mg i.v. aspirin): 71 patients
